One compound from US20250270180A1, “MEK INHIBITORS AND THERAPEUTIC USES THEREOF” (Immuneering Corporation, priority 2020, published 2025) can be followed below.

The subject of one series is A549 pERK. The series is described as follows: A549-pERK, 2 h (quantitative Western, Jess). The series is classed as cell-based. The note with it: Homo sapiens, A549, 2 h, phospho:total ratio normalized to DMSO control. In short, it runs like this:
(§1)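 Cells treated in duplicate for 2 h with compound, lysed and protein-normalised (1 mg/mL pERK, 1.5 mg/mL pMEK). Quantitative capillary Western; phospho/total protein ratio normalised to DMSO.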

Series [1] is described as follows: Metabolite ID study, dog hepatocytes. The series is classed as in vitro ADME. The note with it: 10 uM compound 9, T=60 min. How it is done: (§2) Animal Studies: Compound 9 was tested using six species hepatocytes in a metabolite ID study (T=60 min).
(§3) Cryopreserved hepatocytes from a selected species were thawed and incubated in duplicate with 10 uM compound 9 in Krebs-Henseleit buffer. […] Viability of hepatocytes was >70% after thawing.
(§4) (Eppendorf 5804R). […] The disappearance of the parent compound was determined, and the formation of metabolites was evaluated. Metabolites present at >1% of total compound related material (based on peak area) were identified by interpretation of the LC-MS/MS data.
(§5) MS settings were optimized for the flow rate. Full scan spectra were acquired in combination with data dependent MS2.
(§6) The spectra obtained from all samples were screened for the presence of m/z values that are absent in the blank incubations (incubations with hepatocytes without compound and with vehicle control, and incubations of compound in buffer without hepatocytes). T=60 min incubations were used as an initial screening. All possible metabolites observed were semi-quantified by MS response (peak area). MS2 spectra were interpreted to determine possible location of the metabolism reaction. The presence of metabolites identified was compared across the selected species.

The subject of series [2] is A549 CRAF BP (MEK phosphorylation). The series is described as follows: A549-CRAF BP 100 nM, 2 h (pMEK). The series is classed as cell-based. The conditions noted are these: Homo sapiens, A549, 2 h, phospho:total ratio normalized to DMSO control. Summed up: as §1
Series [3] in a line: Human liver microsome stability (t1/2, Clint). The series is classed as in vitro ADME. The note with it: microsomes, pH 7.4, 0.5 mg/ml microsomal protein. Background: Liver microsomes are vesicles of endoplasmic reticulum, rich in cytochrome P450 enzymes.
A short description of series [4]: Metabolite ID study, human hepatocytes. The series is classed as in vitro ADME. The conditions noted are these: 10 uM compound 9, T=60 min. The procedure: as §2, §3, §4, §5, §6

In the case of `CNS(=O)(=O)Nc1cccc(Cc2c(CN(C)C)c3ccc(OC(=O)N(C)C)cc3oc2=O)c1F` [Compound 9], in the series on A549 pERK (10 nM), the activity at 0.01 µM was found to be 63%. Besides, the activity at 10 µM in the series on A549 pERK (10 uM) is 1.21%. Also, the “% of total compound related material based on peak area, Dog” value in series [1] is given as 96%. Further, the activity at 0.1 µM in series [2] amounted to 44.9%. In series [3], this compound registered a half-life at 1 uM of 35 min and a microsomal CLint at 1 uM of 40 µL/min/mg. Further, the “% of total compound related material based on peak area, Human” value in series [4] turned out to be 99%.

One may read the half-life as the time needed for the level to fall by half in the phase considered. As a reminder, the microsomal CLint is a measure of how fast metabolising enzymes remove a compound, apart from limits set by blood flow. Read a high microsomal CLint as faster metabolism.
